Measurements from paper PMC9694777, “Fractionation and Extraction Optimization of Potentially Valuable Compounds and Their Profiling in Six Varieties of Two Nicotiana Species” (Molecules, 2022).

Assay: physchem
Source text: Determination of the small molecule content in a complex plant matrix depends on the understanding of minimum solubility in the chosen extraction solvent. […] Often, tests on mixture are hardly reproducible on pure compounds if this aspect is not routinely considered in the workflow. We performed a general testing of best solvent systems to compare a wide range of small molecules of interest to understand the limitations of general approaches within a complex plant matrix such as Nicotiana.
For each of the 29 reference compounds, 2 mg was weighed into a 15 mL glass tube and dissolved in the minimum amount of the test solvent by gradually adding the solvent with a micropipette until complete dissolution or to a final volume of 10.0 mL. Seven solvents with polarities from nonpolar to polar were chosen for the test: hexane (C6H14), CH2Cl2, CH2Cl2/MeOH (4:1, v/v), EtOH, MeOH, MeOH/H2O (7:3, v/v), and H2O. The consumed solvents and their volumes were recorded for each reference compound.

Question: Which “Solubility in C6H14” value does the source give for Vitamin E here?
Answer: Its value is 215 mg/mL.

Question: And the “Solubility in CH2Cl2” value?
Answer: The value was 208 mg/mL.

Question: And the “Solubility in CH2Cl2/MeOH (4:1)” value?
Answer: Its value is 241 mg/mL.

Question: What about the “Solubility in EtOH” value of the same substance?
Answer: The value was 43.0 mg/mL.

Question: And the “Solubility in H2O” value?
Answer: Its value is “NS (key: NS: not soluble, insoluble in the solvent at the tested concentration range (0.19–558 mg/mL))”.

Question: What about the “Solubility in MeOH” value of the same substance?
Answer: Its value is 31.2 mg/mL.

Question: What about the “Solubility in MeOH/H2O (7:3)” value of the same substance?
Answer: Its value is 0.23 mg/mL.
